{
  "source": "paper PMC9241302",
  "about": "“Identification of 2-(4-N,N-Dimethylaminophenyl)-5-methyl-1-phenethyl-1H-benzimidazole targeting HIV-1 CA capsid protein and inhibiting HIV-1 replication in cellulo” (BMC Pharmacology & Toxicology, 2022)",
  "key": {"HIV-1 NL4-3 Ba-L": {"tested_on": "HIV-1 NL4-3 Ba-L", "assay": "microbe, parasite or virus in culture", "assay_type": "cell-based", "details": "for inhibition of HIV-1 replication (in words): U87-CD4-CCR5 cells, serial 1:2 dilutions from 10 µM", "procedure": "Compounds were first dissolved in DMSO to reach a concentration of 20 mM. They were further diluted to a 200 µM working stock and then further diluted to reach a starting concentration of 10 µM in the culture plate. U87-CD4-CCR5 cells were seeded in quadruplicate at 4000 cells/well in a final volume of 100 µL. The next day, 24 µL of the compound was added in serial 1:2 dilutions to the cells. Two hours later, 25 µL of infectious virus (NL4-3 Ba-L) were added to the cells with a TCID50 of 250. AZT at 10 µM was included as an inhibition control. The medium was replenished in the presence of compounds once every 3 to 4 days. The supernatant was collected every 3–4 days and analyzed for virus production by an in-house p24 capture ELISA. IC50 was calculated using “Quest Graph™ IC50 Calculator” (AAT Bioquest, Inc., https://www.aatbio.com/tools/ic50-calculator). Cytotoxicity of the compound was tested on U87-CD4-CCR5 cells in parallel by MTT assay (at the same protocol as in Sect. 3.5 but after 11 days of incubation))[39]."}, "[1]": {"tested_on": "HIV-1 reverse transcription (pol viral DNA)", "assay": "qPCR quantification of reverse transcribed viral DNA in U87-CD4-CCR5 cells", "assay_type": "cell-based", "details": "10 µM, cells preincubated, DNA extracted 48 h post-infection", "method": "U87-CD4-CCR5 cells were plated in a 24-wells plate at 1.25 × 10^5 cells per well. […] Total DNA was extracted 48 h post-infection using the AllPrep DNA/RNA Mini Kit (Qiagen, Venlo, Netherlands). […] The following program was used in the LightCycler 480 Real-Time PCR System (Roche, Basel, Switzerland): pre-incubation: 95 °C for 3 min, pre-amplification: 2 cycles of 95 °C for 15 s and 49 °C for 15 s, amplification: 40 cycles of 95 °C for 10 s, 58 °C for 20 s, 72 °C for 30 s, melting curve stage: 95 °C for 5 s, 55 °C for 1 min and then 97 °C with acquisition every 10 °C, cooling stage: 40 °C for 10 s. Serial dilution of the 8E5 cell line which contains 1 copy of HIV-1 proviral DNA per cell was used as a standard curve for viral RT products [46]. […] Results were calculated as the number of copies of Pol per copy of β-actin. Statistical analysis was performed using an unpaired, two-tailed, Mann–Whitney test with GraphPad Prism 7.0 software. Tests were performed in quadruplicate, in two independent experiments."}, "[2]": {"tested_on": "human embryonic kidney cells", "design": "method as in PMID 25512408, PMID 30393786, PMID 24749923, PMID 26492824", "details": "read-out: EC50 in human embryonic kidney cells (cytotoxicity); cited from earlier work"}, "HIV-1": {"tested_on": "HIV-1", "details": "Table 1, PF74, literature value; read-out: IC50 in U87; cited from earlier work"}, "HIV-1 CA [3]": {"molecular_target": "HIV-1 CA", "details": "Table 1, PF74, literature value; read-out: Binding affinity; cited from earlier work"}, "U87 cells": {"tested_on": "U87 cells", "details": "cited from earlier work"}, "human MT4": {"tested_on": "human MT4", "details": "cited from earlier work"}, "human TZM-bl": {"tested_on": "human TZM-bl", "details": "cited from earlier work"}, "[4]": {"details": "human, microsomes; cited from earlier work"}, "HIV-1 CA [5]": {"molecular_target": "T1, HIV-1 CA (Human immunodeficiency virus type 1 group M subtype B, UniProt P12493)", "design": "the capsid protein (CA) of the Gag polyprotein; made in house; host or cells: Escherichia coli BL21(DE3) pLysS; method as in PMID 30393786", "details": "PF74 data from the literature, same condition, cited from earlier work"}, "[6]": {"assay": "Cytotoxicity in murine macrophages (MTT)", "assay_type": "cell-based", "details": "mouse, J774.1 murine macrophages; Fig. 2 toxicology summary", "procedure": "(§1) TZM-bl cells, U87-CD4-CCR5, murine macrophages (J774.1), and THP-1 monocytes (ATCC®TIB-202™) were grown following ATCC recommendations. Cells were seeded in a 96-well plate (10^4 cells in 200 µL culture medium) and incubated at 37 °C in a 5% CO2 atmosphere for 48 h, to allow cell adhesion before drug testing. For stimulation (THP-1 monocytes), cells were incubated with 100 nM of phorbol 12-myristate 13-acetate (PMA) for 48 h. […] A vehicle for control (0.4% DMSO) and negative wells (cells in medium) was used in each test. […] After removing the medium, formazan crystals were dissolved in 180 µL of DMSO and 20µL of MTT buffer (0.1 M glycine, 0.1 M NaCl, 0.5 mM EDTA, pH 10.5), and the absorbance at 560 nm was measured. […] Tests were performed in triplicate, in two independent experiments."}, "mice": {"tested_on": "mice", "details": "cited from earlier work"}, "[7]": {"details": "cited from earlier work"}, "HIV-1 CA [8]": {"molecular_target": "T1, HIV-1 CA", "assay": "HIV-1 CA assembly inhibition assay (absorbance at 340 nm)", "assay_type": "biochemical", "design": "the capsid protein (CA) of the Gag polyprotein; made in house; host or cells: Escherichia coli BL21(DE3) pLysS", "details": "compounds at 25 or 50 µM, CA 5 mg/mL, 30 min", "procedure": "The CA assembly assay was performed in a final volume of 70 µL in 384-well plates, with a final concentration of 5 mg/mL of purified recombinant HIV-1 CA in Phosphate/NaCl Buffer (NaH2PO4/Na2HPO4 50 mM, NaCl 100 mM, pH 7.4), as described for FIV CA [27, 31]. Absorbance was measured at 340 nm every 30 s in a multiplate reader VarioskanTM Flash Multimode Reader (Thermo Scientific, MA, US) at 37 °C for 30 min. The compounds were tested at a fixed initial dose of 25 or 50 µM (at 0.5% DMSO [v/v]) by adding 1 µL of the concentrated ligand to the well before starting the measurement. The controls were CA at 5 mg/mL in only 0.5% DMSO [v/v] and CA without DMSO. The criteria to select active compounds were the observation of at least 50% of assembly inhibition at these doses, based on the reduction of the OD value at 340 nm at the plateau value compared to the controls."}, "[9]": {"tested_on": "murine macrophages (J774.1)", "assay": "Cytotoxicity in murine macrophages (MTT)", "assay_type": "cell-based", "details": "50 µM, 24 h", "procedure": "as §1"}, "[10]": {"assay": "Solubility observed in the assays", "assay_type": "physicochemical", "details": "for solubility at high concentrations (in words): HIV-1 replication assay"}, "[11]": {"design": "method as in PMID 25512408, PMID 30393786, PMID 24749923, PMID 26492824", "details": "cited from earlier work"}, "HIV-1 CA [12]": {"molecular_target": "T1, HIV-1 CA", "assay": "Binding to HIV-1 CA by isothermal microcalorimetry (ITC)", "design": "the capsid protein (CA) of the Gag polyprotein", "details": "200 µM", "procedure": "The affinity of compound 696 for HIV-1 CA in vitro was measured by microscale thermophoresis (MST) as described previously for FIV CA [31]. Due to its intrinsic autofluorescence interfering with MST, the binding of compound 314 to CA was measured using isothermal microcalorimetry (ITC) with a Microcal iTC200 calorimeter (Malvern Instruments, Worcestershire, UK). The calorimeter cell contained 200 µL of recombinant HIV-1 CA (kind gifted by Drs Verrier and Coiffier) at 0.78 mg/mL in phosphate buffer (NaH2PO4/Na2HPO4) 50 mM pH 7.5, NaCl 100 mM, 1% DMSO [v/v]. Compound 314 at 200 µM was then injected sequentially into the calorimeter cell (injection #1: 1 µL, injections #2-#20: 2 µL) at 120 s intervals. Data were analyzed using the OriginLab8.5® software according to the manufacturer’s instructions."}},
  "note": "Entries after “also recorded” stand apart in the source; their conditions may differ. Read-outs that look alike come from different tables or passages of the source.",
  "data": [
    {"smiles": "Cc1cn([C@H]2C[C@H](N=[N+]=[N-])[C@@H](CO)O2)c(=O)[nH]c1=O", "note": "[AZT, Zidovudine, reference compound]", "values": [
      {"measurement": "p24 production", "setting": "HIV-1 NL4-3 Ba-L; AZT 10 µM inhibition control", "value": "No p24 production was detected"},
      {"measurement": "inhibition of HIV-1 reverse transcription (pol viral DNA by qPCR)", "setting": "[1]", "value": "efficient inhibition"}
    ]},
    {"smiles": "Cc1[nH]c2ccccc2c1CC(=O)NC(Cc1ccccc1)C(=O)N(C)c1ccccc1", "note": "(centres unmarked) [PF74]", "values": [
      {"measurement": "EC50", "setting": "[2]", "value": "> 50", "unit": "µM"},
      {"measurement": "IC50", "setting": "HIV-1", "value": 0.06, "unit": "µM"},
      {"measurement": "Kd", "setting": "HIV-1 CA [3]", "value": "0.06 to 0.09", "unit": "µM"},
      {"measurement": "EC50", "setting": "U87 cells", "value": 75, "unit": "µM"},
      {"measurement": "EC50", "setting": "human MT4", "value": 70, "unit": "µM"},
      {"measurement": "EC50", "setting": "human TZM-bl", "value": 47, "unit": "µM"},
      {"measurement": "EC50", "setting": "human TZM-bl; read-out: EC50 in TZM-bl cells (μM) 48hs, Table 1, PF74, 48hs, literature value", "value": 23.5, "unit": "µM"},
      {"measurement": "Metabolic stability, half-life (t1/2)", "setting": "[4]", "value": "Human liver microsomes, the half-life (t1/2) less than 1 min"},
      {"measurement": "Effect in p24 multimerization in vitro", "setting": "HIV-1 CA [5]", "value": "accelerated"},
      {"measurement": "Effect in p24 multimerization in vitro", "setting": "HIV-1 CA [5]; listed as C00001", "value": "acceleration"}
    ]},
    {"smiles": "C=CCn1c(-c2ccc3ccccc3c2)cs\\c1=N/N=C/C=C/c1ccco1", "note": "[compound 305]", "values": [
      {"measurement": "EC50", "setting": "[6]", "value": 50, "unit": "µM"},
      {"measurement": "LD50 in mice (oral acute toxicity)", "setting": "mice", "value": 413, "unit": "mg/kg"},
      {"measurement": "AMES Test (mutagenicity)", "setting": "[7]", "value": "non mutagenic"},
      {"measurement": "interference with the assembly of HIV-1 CA in vitro", "setting": "HIV-1 CA [8]", "value": "interference with the assembly"}
    ]},
    {"smiles": "CCOC(=O)c1n(Cc2ccc(N(C)C)cc2)c2ccc([N+](=O)[O-])cc2[n+]1[O-]", "note": "[compound 553]", "values": [
      {"measurement": "EC50", "setting": "[6]", "value": "< 50", "unit": "µM"},
      {"measurement": "unspecific cytotoxicity in murine macrophages", "setting": "[9]", "value": 100, "unit": "%"},
      {"measurement": "interference with the assembly of HIV-1 CA in vitro", "setting": "HIV-1 CA [8]", "value": "interference with the assembly"}
    ]},
    {"smiles": "C=CCn1c(C(=O)O)cs/c1=N\\N=C\\c1ccc(/C=N/N=c2\\scc(C(=O)O)n2CC=C)cc1", "note": "[compound 1310]", "values": [
      {"measurement": "inhibition of HIV-1 replication (in words)", "setting": "HIV-1 NL4-3 Ba-L", "value": "trend towards inhibition"},
      {"measurement": "EC50", "setting": "[6]", "value": "> 50", "unit": "µM"},
      {"measurement": "solubility at high concentrations (in words)", "setting": "[10]", "value": "solubility problems"},
      {"measurement": "interference with the assembly of HIV-1 CA in vitro", "setting": "HIV-1 CA [8]", "value": "interference with the assembly"}
    ]},
    {"smiles": "C=CCn1c(C(=O)N2CCN(C/C=C/c3ccccc3)CC2)cs/c1=N/N=C\\C=C\\c1ccco1", "note": "[compound 314]", "values": [
      {"measurement": "inhibition of HIV-1 replication (in words)", "setting": "HIV-1 NL4-3 Ba-L", "value": "clear dose–response inhibition; also recorded: inhibition only at 10 µM"},
      {"measurement": "EC50", "setting": "[6]", "value": 40, "unit": "µM"},
      {"measurement": "solubility", "setting": "[10]; pH 7.4, CA assembly assay, read-out: insolubility at concentrations", "value": "> 10", "unit": "µM"},
      {"measurement": "Oral Rat LD50", "setting": "mice; Table S1, 314, not marked as TEST-calculated, Fig. 2 gives mice", "value": ">2000", "unit": "mg/kg"},
      {"measurement": "LD50 in mice (oral acute toxicity)", "setting": "mice", "value": 2000, "unit": "mg/kg"},
      {"measurement": "AMES Test (mutagenicity)", "setting": "[7]", "value": "non mutagenic; also recorded: no mutagenicity"},
      {"measurement": "genotoxicity by Micronucleus Test", "setting": "[11]", "value": "Not genotoxic; also recorded: no genotoxicity"},
      {"measurement": "specific binding for HIV-1 CA", "setting": "HIV-1 CA [12]", "value": "no specific binding"}
    ]},
    {"smiles": "CC(/C=N/N1CCSCC1)=C\\c1ccco1", "note": "[compound 878]", "values": [
      {"measurement": "inhibition of HIV-1 replication (in words)", "setting": "HIV-1 NL4-3 Ba-L", "value": "trend towards inhibition"},
      {"measurement": "EC50", "setting": "[6]", "value": 50, "unit": "µM"},
      {"measurement": "solubility at high concentrations (in words)", "setting": "[10]", "value": "solubility problems"},
      {"measurement": "interference with the assembly of HIV-1 CA in vitro", "setting": "HIV-1 CA [8]", "value": "interference with the assembly"}
    ]}
  ]
}
